Laboratory results taken from patent US11975071B2, “Tumor ablation using low-intensity ultrasound and sound excitable drug” (CORNELL UNIVERSITY, priority 2018, dated 2024).
“Also recorded” adds a separate entry of the source.

Columns and labels:
MDA-MB-468 cells [1] = assay: Cell based ROS scavenging assay; conditions: then RB4 10 μM 1 h, US 1 MHz, 1 W/cm^2, 30 s, MTS one day later; for protective effect of ROS scavenger: scavenger pretreatment 30 min
Procedure: Ceil based ROS scavenging assay: MDA-MB-468 cells (5×10^4) were treated with free radical scavengers, L-histidine (10 mM), D-mannitol (100 mM), N-acetyl cysteine (NAC, 0.5 mM), and superoxide dismutase (SOD, 100 μg/mL) for 30 minutes. The treated cells were then incubated with fresh media containing RB4 (10 μM) for an hour. After incubation, the wells were insonated (1 MHz, 1 W/cm^2, 30 sec, 100% DC) as described above. One day later, the cell's viability was assessed using the MTS solution.

MDA-MB-468 cells [2] = assay: Sonotoxicity with RB4: microscopy and MTS viability assay at 24 hours; type: cell-based
Procedure: Sonotoxicity with RB4: MDA-MB-468 ceils (5×10^4) in 24 well plates were incubated in complete media with 10 μM RB4 for 1 hour prior to the ultrasound treatment. The plates were then placed on a pre-cut gel pad (2 cm×3 cm) with multipurpose ultrasound gel over a mounted handheld ultrasound transducer (5 cm^2) at 1 MHz, 1 W/cm^2 for 30 s, 100% DC. Cells were checked under an EVOS® FL Auto Cell Imaging system microscope. Cell viability at 24 hours was quantitated using an MTS assay. The plate was incubated at 37° C. for 4 hours. Absorbance was measured at 490 nm using a microplate reader.

HT1080, fibrosarcoma = assay: Sono-sensitivity of RB4 in a second cell line; type: cell-based; conditions: RB4 + ultrasound
MDA-MB-468 = assay: Toxicity of RB4 to cells (IC50); type: cell-based; conditions: Homo sapiens, RB4 alone
HT-1080 = assay: Toxicity of RB4 to cells (IC50); type: cell-based; conditions: Homo sapiens, RB4 alone
MDA-MB-468 cells [3] = assay: Mechanistic study of death process by flow cytometry (Annexin V / propidium iodide); type: cell-based; conditions: RB4 10 μM + US 1 MHz, 1 W/cm^2, 30 s; one day after treatment
Procedure: Mechanistic study of death process by flow cytometry: MDA-MB-468 cells (5×10^4) were incubated in complete media with or without 10 μM RB4 for 1 hour prior to ultrasound treatment. Then the plates were insonated at 1 MHz, 1 W/cm^2, 30 sec, 100% duty cycle. Following treatment, cells were re-incubated for 1 day, 4 groups of cells (Control, RB4 alone, ultrasound alone, and RB4 combined with ultrasound) were collected and washed twice with pre-cooled PBS. Cells were stained with FITC-conjugated Annexin-Y and propidium iodide for 15 minutes as per the manufacture's instructions, and then analyzed by flow cytometry. The percentage of dead cells and those undergoing apoptosis were analyzed using flow ‘cytometry’ analysis software.

[4] = Chemical ROS assay (DCFH-DA) in solution under insonation; conditions: RB4 + DCFH solution insonated with different ultrasound powers, 30 s
Procedure: Chemical ROS assay: To study the insonation induced ROS generation in solution, RB4 was tested using a modified 2′, 7′-dichlorofluorescin diacetate (DCFH-DA) assay. DCFH-DA (1 ml, 1 mM in MeOH) was hydrolyzed in NaOH aqueous solution (0.01N, 4 mL) at RT for 30 minutes to yield anon-fluorescent DCFH intermediate. The solution was neutralized with 20 mL of NaH2PO4 (25 mM) and shielded with aluminum foil. The final solution of DCFH was around 40 μM. RB4 (1.0 mg) was dissolved in DMSO (1 mL) and then diluted with water into a 20 μM solution. The RB4 solution (20 μM, 10 mL) was mixed with a DCFH solution (40 μM, 10 mL) as the test solution. The test solution (0.5 mL) was placed into each well of a 24-well plate. The DCFH solution without RB4 was included as a background control. The plates were treated with ultrasound (0.4-1.2 watt/cm^2) one well by one well for 30 seconds: and the insonated wells were then checked using a fluorescence plate reader, ex 485 nm/em 520 nm.

[5] = test system: MDA-MB-468 breast cancer xenograft tumor; assay: In vivo SMRT effect using preloaded tumor cells
Procedure: In vivo sono-membrane rupture therapy (SMRT) effect using preloaded tumor cells: MDA-MB-468 cells were suspended in PBS or RB4 (10 μM) in PBS for 1 day. The cells (5×10^6, 0.1 mL) were subcutaneously injected into both flanks. The left tumors, which were only treated with PBS, were the internal control; while the right tumors were treated with RB4 (10 μM) only, ultrasound only (1 MHz, 1 W/cm^2, 100% DC, 3 minutes), or an RB4-ultrasound combination (n=7). The transducer size was 0.75 cm^2. Tumor size was measured with slide calipers on days 7,10, 14,17,21,24, 28, and 36.

[6] = test system: MDA-MB-468 xenograft tumor; assay: In vivo SMRT effect with intra-tumoral injected RB4, histochemical analysis; design: species or system BALB/c Nu/Nu female nude mice; conditions: two days after treatment
Procedure: (§1) In vivo SMRT effect with intra-tumoral injected RB4: MDA-MB-468 cells (10^7, 0.1 mL PBS) were subcutaneously inoculated into both flanks of BALB/c Nu/Nu female nude mice (5-6 weeks). The RB4 injections and ultrasound therapies were performed when the tumors had grown to approximately 4-5 mm in diameter, 20-22 days after inoculation. The tumors were treated with RB4 (10 μM, 50 μl) only, ultrasound only (1 MHz, 1 W cm2, 100% DC, 3 minutes), and a RB4-ultrasound combination (n=5), Under isoflurane anesthesia, RB4 was directly injected to the tumors of the mice. The ultrasound treatment was then performed immediately after the injection of RB4, with same transducer size. The same RB4-ultrasound treatment was performed on the thigh muscles of the mice. Histochemical analysis: Tumors and muscle tissue were harvested 2 days after therapy and the specimens were fixed in 10% formalin, cut in half, and embedded in paraffin. The paraffin sections (7 μm thick) were stained with hematoxylin-eosin (H&E). ImageJ 1.48 was used to measure the size of whole tumor and necrotic areas in the tumors.

[7] = test system: thigh muscle (normal muscle tissue); assay: Same RB4-ultrasound treatment on thigh muscle, histochemical analysis; type: in vivo, BALB/c Nu/Nu female nude mice; conditions: RB4 + US 1 MHz, 1 W/cm^2, 3 min applied to thigh muscle; two days after treatment
Procedure: as §1

[8] = Absorption and emission spectra; type: physicochemical

OC[C@@H](O)[C@@H](O)[C@H](O)[C@H](O)CO [D-mannitol]
protective effect of ROS scavenger (MDA-MB-468 cells [1]): none, with the exception of NAC, showed any protective effects

N[C@@H](Cc1c[nH]cn1)C(=O)O [L-histidine]
protective effect of ROS scavenger (MDA-MB-468 cells [1]): none, with the exception of NAC, showed any protective effects

CC(=O)N[C@@H](CS)C(=O)O [NAC, N-acetyl cysteine]
fraction of cells rescued from RB4 and ultrasound combination treatment (MDA-MB-468 cells [1]; scavenger pretreatment 30 min (NAC 0.5 mM)): ~20%
protective effect of ROS scavenger (MDA-MB-468 cells [1]): able to rescue a fraction of cells

O=C(NCCO)c1c(Cl)c(Cl)c(Cl)c(Cl)c1-c1c2cc(I)c(=O)c(I)c-2oc2c(I)c(O)c(I)cc12 [RB4, 2,3,4,5-tetrachloro-6-(6-hydroxy-2,4,5,7-tetraiodo-3-oxo-3H-xanthen-9-yl)-N-(2-hydroxyethyl)-benzamide]
cells killed (MDA-MB-468 cells [2]; RB4 10 μM 60 min + ultrasound 1 MHz, 1 W/cm^2, 30 s, viability one day later): over 90%
cell damage in microscopic images (MDA-MB-468 cells [2]; RB4 10 μM + ultrasound 1 MHz, 1 W/cm^2, 30 s): significant damage
cell viability (MDA-MB-468 cells [2]; RB4 alone 10 μM, 60 min, no ultrasound, MTS one day later): > 80 % viable
cell damage in microscopic images (MDA-MB-468 cells [2]; RB4 alone 10 μM, versus untreated): Little difference
cells killed (HT1080, fibrosarcoma): 95%
IC50 (MDA-MB-468): 71 µM
IC50 (HT-1080): 157 µM
PI positive cells (MDA-MB-468 cells [3]): 3%
annexin positive cells (MDA-MB-468 cells [3]): 8%
annexin/PI double positive cells (MDA-MB-468 cells [3]): 36%
ROS level of RB4 solution [4]: not significantly different from the background level
tumor growth inhibition (in words) ([5]; RB4 10 μM + US 1 MHz, 1 W/cm^2, 3 min, N=7): significant growth arrest
average tumor size relative to control untreated tumor ([5]; RB4 10 μM preloaded cells + US 1 MHz, 1 W/cm^2, 3 min, up to 36 days): about 20%
tumor growth inhibition (in words) ([5]; RB4 alone 10 μM): about the same as the untreated group; also recorded: no appreciable inhibition effect
growth rate ratio of treated vs. untreated tumors ([5]; RB4 alone (cells pre-incubated with 10 μM for 1 day), up to 36 days): ≈ 1
necrotic area ([6]; RB4 50 μL, 10 μM intratumoral + US 1 MHz, 1 W/cm^2, 3 min): ~40%
necrosis on HE staining (in words) ([6]; RB4 50 μl, 10 μM intratumoral + US 1 MHz, 1 W/cm^2, 3 min): A large necrotic area
tissue damage on HE staining (in words) ([6]; RB4 alone 50 μl, 10 μM intratumoral): Little effect; also recorded: little tissue damage
damage to normal muscle tissue [7]: maintained their normal structures without damage; also recorded: no damaged cells were found
absorption and emission (in words) [8]: neither absorption nor emission above 400 nm

O=C1OC2(c3cc(I)c(O)c(I)c3Oc3c2cc(I)c(O)c3I)c2c(Cl)c(Cl)c(Cl)c(Cl)c21 [RB, Rose Bengal]
absorption maximum [8]: 549 nm
emission maximum [8]: 565 nm

superoxide dismutase
protective effect of ROS scavenger (MDA-MB-468 cells [1]): none, with the exception of NAC, showed any protective effects
